Consider eight compounds from US12485085B2, “PPAR agonist complex and methods of use” (RODAN & FIELDS, LLC, priority 2019, dated 2025).

The subject of data set [1] is EpiDerm skin substitutes. Description: Skin irritation in reconstructed human epidermal model EpiDerm (MTT viability). In kind it is cell-based. Set-up: key to Classification: I = irritant; NI = non irritant.
Description: Materials and Methods: Thirty p of each sample was applied on top of EpiDerm skin substitutes.
EpiDerm skin substitutes (cat. EPI-200-SIT; Lot #29690) and 5% SDS solution (positive control) were obtained from MatTek (Ashland, Mass.). The test was generally performed according to MatTek protocol. The study was conducted in line with requirements of OECD GD 34 and ECVAM Performance Standard document for applying human skin models to in vitro skin irritation. This protocol utilizes the MTT-based cytotoxicity readout as the experimental endpoint, and thus effectively measures the cytotoxicity of test materials at the level of the skin. MTT [3-(4,5-Dimethylthiazol-2-yl)-2,5-diphenyltetrazolium bromide, a tetrazole] which is yellow, is reduced to purple formazan in living cells and this conversion is measured in a colorimetric assay. MTT assay measures the activity of succinate dehydrogenase, a key enzyme in the respiratory electron transport chain in mitochondria and is a generally-accepted test for measuring cytotoxicity.
Statistically significant variation was defined as ≥15% variation from the water control with p value<0.05 calculated using double-tailed t-test.
Data set [2] relates to IL-8. Description: IL-8 quantification in EpiDerm-conditioned media (ELISA). The class given is cell-based, human. As for the experimental part:
The test material was assayed in duplicates. Controls were assayed in triplicates. The negative control was type I sterile water and Finsolv. The positive control was 5% SDS. All incubations were at 37° C. The pre-incubation time 1 (tissue acclimatization time) was overnight and the exposure to samples was 60 min. Tissues were then rinsed with sterile PBS and placed in the new culture medium. Post-incubation time 1 was 24 h, afterward medium was collected and saved at −20° C. for later interleukin quantification, and tissues were placed in new medium. Post-incubation time 2 was 18 h (both post-incubation times are to allow the consequences of the potential irritation to fully develop), MTT test (irritation readout) was 3 h and the extraction was left overnight. The extracted formazan (the product of the MTT conversion, proportional to cell viability) was quantified with Molecular Devices microplate reader MAX190 by colorimetry. Signal quantification was performed using SoftMax3.1.2PRO at 560 nm. For IL-8 quantification (a complementary method for assessing skin irritation), 100 μl samples of media from each well were tested in triplicates using CytoSet antibody pair for ELISA from Thermo Fischer Scientific (Waltham, Mass.; cat. #133301) according to the manufacturer's instructions. […]
In general terms: In an ELISA, binding on a coated surface is turned into a signal by an enzyme label.

In data set [3] the target is T1, PPAR-α (Homo sapiens, UniProt Q07869).
T1 sequence (Q07869 1-468): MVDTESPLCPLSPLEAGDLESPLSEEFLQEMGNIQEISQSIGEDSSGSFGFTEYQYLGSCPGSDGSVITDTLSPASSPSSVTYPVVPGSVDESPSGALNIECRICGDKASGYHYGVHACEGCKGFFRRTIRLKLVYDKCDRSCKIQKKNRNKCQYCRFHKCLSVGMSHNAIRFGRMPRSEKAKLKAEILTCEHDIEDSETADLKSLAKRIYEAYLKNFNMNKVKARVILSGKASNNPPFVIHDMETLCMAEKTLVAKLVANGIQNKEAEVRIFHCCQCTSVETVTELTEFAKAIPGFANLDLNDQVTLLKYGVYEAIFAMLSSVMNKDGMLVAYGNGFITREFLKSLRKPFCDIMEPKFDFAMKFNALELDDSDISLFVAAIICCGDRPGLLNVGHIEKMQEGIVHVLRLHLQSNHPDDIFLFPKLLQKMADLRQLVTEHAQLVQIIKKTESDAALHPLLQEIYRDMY
Description: PPAR-α luciferase reporter assay in CHO cells. In general terms: A reporter such as luciferase makes a cellular process visible.
Description: The objective of this project was to determine the effects of the test materials listed in Table 4 on the transcription regulatory activity of PPARα in a luciferase reporter assay system.
A variety of samples were tested on the effect on the transcription of the PPAR-α controlled luciferase reporter gene.
PPAR-α Luciferase experiment: Compositions were tested at 250 μg/mL Dilution in DMSO (FIG. 1) and 500 μg/mL Dilution in DMSO (FIG. 2).
Table 5 summarizes the effect of different concentrations of test materials on the transcriptional activation of the luciferase reporter gene under the PPAR-α-controlled promoter (2 separate experiments, Experiment 1 wherein sample prep was done in water and Experiment 2 wherein the sample prep was done in DMSO).

For data set [4], the system named is CHO cells. Put plainly: Cytotoxicity observed in the PPAR-α luciferase reporter assay. To be noted: for Cytotoxic?: Experiment 2 (sample prep in DMSO).
Description: A variety of samples were tested on the effect on the transcription of the PPAR-α controlled luciferase reporter gene. CHO cells were utilized and are an epithelial cell line derived from the ovary of the Chinese hamster.
The test system of data set [5] is C57BL/6 mouse melanocytes. Description: Melanin content in melanocytes and melanocyte-conditioned medium. To be noted: 3 days; for % Control (extracellular melanin): melanocyte-conditioned medium. The class given is cell-based. As for the experimental part:
Materials & Methods: Test material was dissolved at 100 mg/ml in DMSO the day of the experiment, diluted in sterile distilled water and samples were added in duplicates to confluent cultures of C57BL/6 mouse melanocytes well plate format. The cell growth medium was Opti-MEM supplemented with 7% horse serum (ThermoFisher Scientific, Waltham, Mass.) and antibiotics. Medium was freshly changed on Day 0 of the experiment. Cells were grown in the presence of the test material for 3 days, afterward they were frozen at −20° C., lysed in Solvable (Perkin Elmer, Waltham, Mass.) at 37° C. for 60 min. and colorimetrically quantified at 490 nm with Molecular Devices (Sunnyvale, Calif.) microplate reader MAX190. Kojic acid (100 μg/ml and 200 μg/ml) was the positive control. Statistically significant variation was defined as >20% variation from the water control with p value<0.05 calculated with double-tailed t-test.
Test materials were added to exponentially-growing cultures and the experiment was terminated 3 days later.

Data set [6] is described as follows: Lipophilic oxygen radical absorbance capacity (Lipo-ORAC) assay. In kind it is biochemical. The settings on record: expressed in Trolox equivalents. As for the experimental part:
Because of its damaging effect on vital biological systems, oxidative stress has been implicated in more than 100 diseases and aging. The objective of this test was to measure the antioxidant potential of the test materials listed in Table I using lipophilic oxygen radical absorbance capacity (Lipo-ORAC) assay (Stock solutions were prepared in acetone at 2% and diluted in 7% RMCD immediately before the experiment). Lipo-ORAC assay measures the ability of antioxidant compounds to inhibit the decline in disodium fluorescein (FL) fluorescence that is induced by peroxyl radical generator, 2′,2′-Azobis (2-amidinopropane) dihydrochloride (AAPH). The peroxyl radical is one of the most common reactive oxygen species (ROS) found in the body. This procedure incorporates random methylated beta-cyclodextrin as a solubility enhancer and allows for quantification of antioxidant potential of lipophilic samples, using Trolox as standard. Applied Biosystems Cytofluor 4000 fluorometer and software were used for the quantification of this assay.

Data set [7] deals with T2, PPAR-γ (Homo sapiens, UniProt P37231).
T2 sequence (P37231 1-505): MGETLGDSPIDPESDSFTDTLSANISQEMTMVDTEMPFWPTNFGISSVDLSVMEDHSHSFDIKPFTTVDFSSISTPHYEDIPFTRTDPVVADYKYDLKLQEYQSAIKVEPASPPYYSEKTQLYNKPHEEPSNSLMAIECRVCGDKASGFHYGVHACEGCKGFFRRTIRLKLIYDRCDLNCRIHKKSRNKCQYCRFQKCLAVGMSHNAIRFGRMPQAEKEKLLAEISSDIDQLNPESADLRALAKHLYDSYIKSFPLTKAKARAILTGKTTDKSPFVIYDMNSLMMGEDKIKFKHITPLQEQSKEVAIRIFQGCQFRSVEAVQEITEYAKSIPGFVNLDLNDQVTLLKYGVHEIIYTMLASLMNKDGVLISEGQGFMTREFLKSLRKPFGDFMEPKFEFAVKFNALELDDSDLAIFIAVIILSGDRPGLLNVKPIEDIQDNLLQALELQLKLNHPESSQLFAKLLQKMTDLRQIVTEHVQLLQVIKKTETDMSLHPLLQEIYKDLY
Put plainly: PPAR-γ luciferase experiment. In kind it is cell-based. To be noted: statement of the description. As for the experimental part:
PPAR-γ Luciferase experiment: Compositions were tested at 50 μg/mL Dilution in DMSO (FIG. 3) and 200 μg/mL Dilution in DMSO (FIG. 4). Positive control: Rosiglitazone at 300 nM potent and selective agonist of PPARγ.

[8] abbreviates: Experiment 2 (sample prep in DMSO), 250 μg/mL.
The mark [9] stands for this setting: Experiment 2 (sample prep in DMSO), 500 μg/mL.
The mark [10] stands for this setting: Experiment 1 (sample prep in water), 300 nM.
The mark [11] stands for this setting: Experiment 2 (sample prep in DMSO), 300 nM.

As to `CCCCCCCCCCCCOS(=O)(=O)[O-].[Na+]` [5% SDS], the cells viable in data set [1] (MTT) is given as 12%. Also, the “Mean of OD” value in data set [1] (MTT formazan at 560 nm, 60 min exposure, RFV3 at 10% in Finsolv) is given as 0.038. In addition, in data set [1] (MTT, 60 min exposure, RFV3 at 10% in Finsolv), the “Mean of Viability [% water]” value came to 2 % water. Besides, the Classification entry in data set [1] (RFV3 at 10% in Finsolv) is given as “I”. The “decrease of the IL-8 level” value in data set [2] amounted to 55%.

In the case of `CCCCCCCCC(O)CCCCCCCCC(=O)O` (centres unmarked) [10HSA, Hydroxystearic Acid], the results for the “% Control (H2O)” value in data set [3] (setting [8]) and in data set [3] (setting [9]) were 45% and 41%, respectively. Besides, the Chemoluminescence in data set [3] (setting [8]) and in data set [3] (setting [9]) was 2 arbitrary units each time. Besides, the “Cytotoxic?” value in data set [4] (250 μg/mL) and in data set [4] (500 μg/mL) was “Yes” throughout.

In the case of `Cc1nc(-c2ccc(C(F)(F)F)cc2)sc1C(=O)NCc1ccc(OC(C)(C)C(=O)O)cc1` [GW590735], the “% Control (H2O)” value in data set [3] (setting [10]) came out at 365%; in data set [3] (setting [11]), 341%. The Chemoluminescence in data set [3] (setting [10]) stood at 344 arbitrary units; in data set [3] (setting [11]), 19 arbitrary units. Moreover, the “effect on transcriptional activation of the luciferase reporter gene under the PPAR-α-controlled promoter (in words)” value in data set [3] (summary of Table 5) is “strongly upregulated”.

For `O=c1cc(CO)occ1O` [Kojic acid], the “% Control (intracellular melanin)” value in data set [5] (100 μg/ml) came out at 92%; in data set [5] (200 μg/ml), 86%. In addition, the “% Control (extracellular melanin)” value is reported as 90% in data set [5] (100 μg/ml) and 84% in data set [5] (200 μg/ml).

For the compound `CCCCCCCCC(CCCCCC)C(=O)OC[C@H](OC(=O)C(CCCCCC)CCCCCCCC)[C@H]1OC(=O)C(OC(=O)C(CCCCCC)CCCCCCCC)=C1OC(=O)C(CCCCCC)CCCCCCCC` (some centres unmarked) [Tetrahexyldecyl (THD) ascorbate], the “ORAC (Lipo-ORAC score)” value in data set [6] was 0 μmoles TE/g; in data set [6] (listed as THD ascorbate) it was “no activity”.

As to `Cc1c(C)c2c(c(C)c1O)CCC(C)(C(=O)O)O2` (centres unmarked) [Trolox], the “ORAC (Lipo-ORAC score)” value in data set [6] amounted to 3985 μmoles TE/g.

In the case of `CCCCCC/C=C/C#CCCCCCCCC(=O)O` [XA, (E)-Octadec-11-en-9-ynoic acid], the “PPARγ agonist activity (in words)” value in data set [7] is “moderate PPARγ agonist”. In data set [3] (setting [8]), the “% Control (H2O)” value was 145% and the Chemoluminescence stood at 8 arbitrary units. Besides, in data set [3] (setting [9]), the “% Control (H2O)” value is 24% and the Chemoluminescence is 1 arbitrary units. Also, the “PPAR / PPARα agonist activity (in words)” value in data set [3] (statements of the description) was “very mild PPARα agonist”. Besides, the “cytotoxicity (in words)” value in data set [4] (Example 8, FIG. 9, 500 μg/mL in DMSO) was “cytotoxic”. For the same compound, the “Cytotoxic?” value in data set [4] (500 μg/mL) was “Yes”.

As to Octadecenedioic Acid [ODA], the results for the “% Control (H2O)” value in data set [3] (setting [8]) and in data set [3] (setting [9]) were 278% and 97%, respectively. Further, the figures for the Chemoluminescence in data set [3] (setting [8]) and in data set [3] (setting [9]) were 15 arbitrary units and 5 arbitrary units, respectively.
